The values below come from PubChem BioAssay (NCI).

Test systems include UO-31 renal; OVCAR-8 ovarian; HT29 colon; SN12C renal; HOP-92 NSCLC; A498 renal; 786-0 renal; K-562 leukemia; SF-539 CNS; RXF 393 renal.
Assay in all cases: inhibition of tumour cell growth, NCI panel, 48 h

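These data come from cells grown in 96-well plates and exposed to compound for 48 hours at five concentrations. GI50 marks 50% less growth. At the TGI there is no net growth.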 Where only a bound is given, the exact number is not on record here.

As to `NC(N)=NCC(N)C(=O)O` (stereo not drawn), the TGI in the assay on UO-31 renal, in the assay with OVCAR-8 ovarian, in the assay on HT29 colon, in the assay with SN12C renal, with HOP-92 NSCLC and in the assay on A498 renal was > 100 µM throughout. Also, the TGI with 786-0 renal, in the assay on K-562 leukemia, with SF-539 CNS and in the assay on RXF 393 renal was > 100 µM in each case.
As to `Cc1cccc(NC2=NCCO2)c1Cl`, the TGI in the assay on UO-31 renal, in the assay on OVCAR-8 ovarian, with HT29 colon, with SN12C renal, in the assay with HOP-92 NSCLC and in the assay with A498 renal was > 100 µM in each case. The TGI in the assay with 786-0 renal, in the assay on K-562 leukemia, with SF-539 CNS and in the assay on RXF 393 renal was > 100 µM each time.
Take `CCOC(=O)CC[C@H](N)C(=O)N[C@H](Cc1ccc(N(CCCl)CCCl)cc1)C(=O)OCC`: the GI50 with UO-31 renal is 0.135 µM. The TGI amounted to 0.281 µM in the assay on UO-31 renal; 13.3 µM in the assay on HT29 colon; 16.7 µM with SN12C renal; 3.24 µM in the assay on HOP-92 NSCLC; 74.5 µM in the assay on A498 renal; 5.32 µM in the assay with 786-0 renal. For the same molecule, the TGI was > 100 µM in the assay with K-562 leukemia, 8.83 µM in the assay with SF-539 CNS and 3.66 µM with RXF 393 renal.
As to `COc1ccc(C[C@@H]2OC3(C=CC(=O)C=C3)O[C@H]2Cc2ccc(OC)cc2)cc1`, the TGI was 0.379 µM in the assay with UO-31 renal; 0.645 µM in the assay on OVCAR-8 ovarian; 2.18 µM in the assay on HT29 colon; 3.16 µM in the assay with SN12C renal; 1.82 µM in the assay on HOP-92 NSCLC; 14.8 µM in the assay on A498 renal. The TGI is 0.412 µM in the assay on 786-0 renal, > 100 µM in the assay on K-562 leukemia, 2.63 µM with SF-539 CNS and 0.79 µM in the assay with RXF 393 renal.
In the case of `CC(=O)N(CN1C(=O)CCC1C(=O)O)c1ccccc1Cl` (stereo not drawn), the TGI with UO-31 renal, in the assay with OVCAR-8 ovarian, with HT29 colon, in the assay with SN12C renal, in the assay on HOP-92 NSCLC and in the assay on A498 renal was > 100 µM in each case. For the same molecule, the TGI with 786-0 renal, in the assay with K-562 leukemia, in the assay on SF-539 CNS and in the assay on RXF 393 renal was > 100 µM in each case.
For `C=C1c2nc3ccccc3n2C=C(c2ccc(OC)cc2)N1c1ccc(OCCN2CCOCC2)cc1`, the TGI in the assay on UO-31 renal, in the assay with OVCAR-8 ovarian, with HT29 colon, in the assay on SN12C renal, in the assay with HOP-92 NSCLC and in the assay on A498 renal was > 100 µM each time. In addition, the TGI in the assay on 786-0 renal, in the assay with K-562 leukemia, with SF-539 CNS and in the assay with RXF 393 renal was > 100 µM in each case.
On to `O=[N+]([O-])c1ccc2ncccc2c1CCc1c([N+](=O)[O-])ccc2ncccc12`, for which the TGI in the assay with UO-31 renal, in the assay on OVCAR-8 ovarian, in the assay with HT29 colon, with SN12C renal, with HOP-92 NSCLC and in the assay on A498 renal was > 100 µM throughout. Further, the TGI in the assay with 786-0 renal, in the assay on K-562 leukemia, in the assay with SF-539 CNS and in the assay on RXF 393 renal was > 100 µM each time.
With `Cc1nc2c(=O)[nH]c3ccc(Cl)cc3c2o1`, the TGI in the assay with UO-31 renal, in the assay with OVCAR-8 ovarian, with HT29 colon, with SN12C renal, in the assay on HOP-92 NSCLC and in the assay with A498 renal was > 100 µM each time. Besides, the TGI with 786-0 renal, in the assay with K-562 leukemia, in the assay with SF-539 CNS and in the assay with RXF 393 renal was > 100 µM in each case.
Take `CC(C)N(C(C)C)P(OCCC#N)OC1CC(n2cnc3c(=O)[nH]cnc32)OC1COC(=O)NCCCCCCNC(=O)OC(C)(C)c1ccc(-c2ccccc2)cc1` (stereo not drawn): the TGI was 31.3 µM in the assay with UO-31 renal; 92.4 µM in the assay with OVCAR-8 ovarian; > 100 µM in the assay on HT29 colon; 54 µM with SN12C renal; 75.7 µM in the assay on HOP-92 NSCLC; > 100 µM in the assay with A498 renal. Besides, the TGI is 54.7 µM in the assay with 786-0 renal, 37.5 µM in the assay on K-562 leukemia, 44.3 µM with SF-539 CNS and 74.3 µM in the assay with RXF 393 renal.
On to `CCN(CC)CCNc1ccc2ncn3c4cc(=O)ccc4c(O)c1c23`, for which the TGI amounted to 22 µM with UO-31 renal; 7.77 µM in the assay with OVCAR-8 ovarian; 11.5 µM in the assay with HT29 colon; 15.7 µM with SN12C renal; 6.78 µM in the assay on HOP-92 NSCLC; 14 µM in the assay with A498 renal. The TGI with 786-0 renal is 14.9 µM; with K-562 leukemia it was 30 µM; in the assay with SF-539 CNS it was 15.1 µM; with RXF 393 renal it was 3.68 µM.
`OC1c2ccccc2C(O)C2OC12` (stereo not drawn): the TGI in the assay on UO-31 renal, in the assay on OVCAR-8 ovarian, in the assay on HT29 colon, in the assay with SN12C renal, in the assay with HOP-92 NSCLC and in the assay on A498 renal was > 100 µM throughout. Also, the TGI in the assay with 786-0 renal, in the assay on K-562 leukemia, in the assay on SF-539 CNS and in the assay on RXF 393 renal was > 100 µM throughout.
Take `COCCNC1CCC2(SCCS2)c2[nH]c3ccccc3c21` (stereo not drawn): the TGI is > 100 µM in the assay with OVCAR-8 ovarian; > 100 µM in the assay with HT29 colon; 91.9 µM in the assay on SN12C renal; 50.3 µM in the assay on HOP-92 NSCLC; 86.1 µM in the assay with A498 renal; > 100 µM in the assay on 786-0 renal. Further, the TGI was > 100 µM with K-562 leukemia, 50.7 µM in the assay on SF-539 CNS and 40.4 µM with RXF 393 renal.
Turning to `OCC(O)C(O)C(O)C(O)/C=N/Nc1nc(O)c(/C=C2\C=Nc3ccccc32)[nH]1` (stereo not drawn), the TGI in the assay on OVCAR-8 ovarian, in the assay on HT29 colon, with SN12C renal, with HOP-92 NSCLC, with A498 renal and in the assay on 786-0 renal was > 100 µM throughout. In addition, the TGI in the assay on K-562 leukemia, with SF-539 CNS and with RXF 393 renal was > 100 µM in each case.
For `N#C/C(=C\c1ccccc1Br)C(=O)c1ccccc1`, the TGI in the assay with UO-31 renal was > 53.9 µM; in the assay with OVCAR-8 ovarian, > 38.6 µM; in the assay on HT29 colon, > 100 µM; in the assay with SN12C renal, > 76.6 µM; in the assay with HOP-92 NSCLC it was > 100 µM; in the assay on A498 renal, > 100 µM. The TGI in the assay with 786-0 renal is 30.5 µM; in the assay with K-562 leukemia it was > 42.6 µM; in the assay on SF-539 CNS, > 100 µM; in the assay with RXF 393 renal it was > 100 µM.
